The values that follow come from ChEMBL document CHEMBL1914455, “A dual fluorinated and iodinated radiotracer for PET and SPECT imaging of β-amyloid plaques in the brain” (Bioorg Med Chem Lett, 2011).

Series [1] has as its system Bone. Put plainly: Biodistribution in ddY mouse bone assessed per gram of tissue at 0.2 to 0.4 uCi, iv after 30 mins. The following applies: in vivo, 0.5 h. The format is ADME, organism-based, Bone element.
In series [2] the test system is Blood. Put plainly: Biodistribution in ddY mouse blood assessed per gram of tissue at 0.2 to 0.4 uCi, iv after 10 mins. The format is ADME, organism-based. The following applies: in vivo.
Series [3] deals with Blood. Put plainly: Biodistribution in ddY mouse blood assessed per gram of tissue at 0.2 to 0.4 uCi, iv after 60 mins. The format is ADME, organism-based. The following applies: in vivo, 1 h.
The test system of series [4] is Bone. The series can be described thus: Biodistribution in ddY mouse bone assessed per gram of tissue at 0.2 to 0.4 uCi, iv after 60 mins. The format is ADME, organism-based, Bone element. The following applies: in vivo, 1 h.
In series [5] the test system is Blood. Put plainly: Biodistribution in ddY mouse blood assessed per gram of tissue at 0.2 to 0.4 uCi, iv after 30 mins. The format is ADME, organism-based. As to conditions: in vivo, 0.5 h.
For series [6], the system named is Brain. The series can be described thus: Biodistribution in ddY mouse brain assessed per gram of tissue at 0.2 to 0.4 uCi, iv after 10 mins. The format is ADME, organism-based. The following applies: in vivo.
Series [7] concerns Brain. Put plainly: Biodistribution in ddY mouse brain assessed per gram of tissue at 0.2 to 0.4 uCi, iv after 2 mins. As to conditions: in vivo. The format is ADME, organism-based.
In series [8] the test system is Blood. The series can be described thus: Biodistribution in ddY mouse blood assessed per gram of tissue at 0.2 to 0.4 uCi, iv after 2 mins. The format is ADME, organism-based. The following applies: in vivo.
Series [9] relates to Bone. Put plainly: Biodistribution in ddY mouse bone assessed per gram of tissue at 0.2 to 0.4 uCi, iv after 2 mins. The format is ADME, organism-based, Bone element. The following applies: in vivo.
Series [10] has as its system Brain. Put plainly: Drug elimination from ddY mouse brain assessed per gram of tissue after 60 mins. As to conditions: in vivo, 1 h. The format is ADME, organism-based.
Series [11] concerns Brain. The series can be described thus: Biodistribution in ddY mouse brain assessed per gram of tissue at 0.2 to 0.4 uCi, iv after 60 mins. The format is ADME, organism-based. The following applies: in vivo, 1 h.
Series [12] relates to Bone. Put plainly: Biodistribution in ddY mouse bone assessed per gram of tissue at 0.2 to 0.4 uCi, iv after 10 mins. The following applies: in vivo. The format is ADME, organism-based, Bone element.
Series [13] deals with Brain. Put plainly: Biodistribution in ddY mouse brain assessed per gram of tissue at 0.2 to 0.4 uCi, iv after 30 mins. The following applies: in vivo, 0.5 h. The format is ADME, organism-based.
Series [14] has as its system Stomach. The series can be described thus: Biodistribution in ddY mouse stomach assessed per gram of tissue at 0.2 to 0.4 uCi, iv after 60 mins. The format is ADME, organism-based. As to conditions: in vivo, 1 h.
Series [15] has as its system Spleen. The series can be described thus: Biodistribution in ddY mouse spleen assessed per gram of tissue at 0.2 to 0.4 uCi, iv after 2 mins. The format is ADME, organism-based. The following applies: in vivo.
For series [16], the system named is Spleen. The series can be described thus: Biodistribution in ddY mouse spleen assessed per gram of tissue at 0.2 to 0.4 uCi, iv after 30 mins. The format is ADME, organism-based. The following applies: in vivo, 0.5 h.
Series [17] deals with Stomach. Put plainly: Biodistribution in ddY mouse stomach assessed per gram of tissue at 0.2 to 0.4 uCi, iv after 10 mins. As to conditions: in vivo. The format is ADME, organism-based.
The test system of series [18] is Intestine. Put plainly: Biodistribution in ddY mouse intestine assessed per gram of tissue at 0.2 to 0.4 uCi, iv after 60 mins. The format is ADME, organism-based. As to conditions: in vivo, 1 h.
The subject of series [19] is Pancreas. Put plainly: Biodistribution in ddY mouse pancreas assessed per gram of tissue at 0.2 to 0.4 uCi, iv after 30 mins. The format is ADME, organism-based. The following applies: in vivo, 0.5 h.
Series [20] has as its system Intestine. The series can be described thus: Biodistribution in ddY mouse intestine assessed per gram of tissue at 0.2 to 0.4 uCi, iv after 2 mins. The format is ADME, organism-based. The following applies: in vivo.
Series [21] deals with Pancreas. Put plainly: Biodistribution in ddY mouse pancreas assessed per gram of tissue at 0.2 to 0.4 uCi, iv after 60 mins. The format is ADME, organism-based. As to conditions: in vivo, 1 h.
The test system of series [22] is Liver. The series can be described thus: Biodistribution in ddY mouse liver assessed per gram of tissue at 0.2 to 0.4 uCi, iv after 30 mins. The format is ADME, organism-based. The following applies: in vivo, 0.5 h.
Series [23] deals with Heart. Put plainly: Biodistribution in ddY mouse heart assessed per gram of tissue at 0.2 to 0.4 uCi, iv after 30 mins. The format is ADME, organism-based. The following applies: in vivo, 0.5 h.
The subject of series [24] is Kidney. The series can be described thus: Biodistribution in ddY mouse kidney assessed per gram of tissue at 0.2 to 0.4 uCi, iv after 2 mins. The format is ADME, organism-based. The following applies: in vivo.
Series [25] relates to Spleen. The series can be described thus: Biodistribution in ddY mouse spleen assessed per gram of tissue at 0.2 to 0.4 uCi, iv after 60 mins. The format is ADME, organism-based. As to conditions: in vivo, 1 h.
Series [26] deals with Stomach. The series can be described thus: Biodistribution in ddY mouse stomach assessed per gram of tissue at 0.2 to 0.4 uCi, iv after 30 mins. The format is ADME, organism-based. As to conditions: in vivo, 0.5 h.
Series [27] is described as follows: Octanol-water partition coefficient, log P of the compound at pH 7.4. The format is physicochemical.
The subject of series [28] is Liver. The series can be described thus: Biodistribution in ddY mouse liver assessed per gram of tissue at 0.2 to 0.4 uCi, iv after 60 mins. As to conditions: in vivo, 1 h. The format is ADME, organism-based.
Series [29] deals with Pancreas. Put plainly: Biodistribution in ddY mouse pancreas assessed per gram of tissue at 0.2 to 0.4 uCi, iv after 2 mins. The format is ADME, organism-based. The following applies: in vivo.
The subject of series [30] is Heart. The series can be described thus: Biodistribution in ddY mouse heart assessed per gram of tissue at 0.2 to 0.4 uCi, iv after 2 mins. The following applies: in vivo. The format is ADME, organism-based.
For series [31], the system named is Liver. Put plainly: Biodistribution in ddY mouse liver assessed per gram of tissue at 0.2 to 0.4 uCi, iv after 10 mins. The format is ADME, organism-based. As to conditions: in vivo.
Series [32] concerns Heart. Put plainly: Biodistribution in ddY mouse heart assessed per gram of tissue at 0.2 to 0.4 uCi, iv after 10 mins. The format is ADME, organism-based. The following applies: in vivo.
In series [33] the test system is Stomach. Put plainly: Biodistribution in ddY mouse stomach assessed per gram of tissue at 0.2 to 0.4 uCi, iv after 2 mins. The format is ADME, organism-based. As to conditions: in vivo.
For series [34], the system named is Intestine. Put plainly: Biodistribution in ddY mouse intestine assessed per gram of tissue at 0.2 to 0.4 uCi, iv after 10 mins. The format is ADME, organism-based. As to conditions: in vivo.
Series [35] deals with Spleen. The series can be described thus: Biodistribution in ddY mouse spleen assessed per gram of tissue at 0.2 to 0.4 uCi, iv after 10 mins. The following applies: in vivo. The format is ADME, organism-based.
Series [36] relates to Intestine. The series can be described thus: Biodistribution in ddY mouse intestine assessed per gram of tissue at 0.2 to 0.4 uCi, iv after 30 mins. The following applies: in vivo, 0.5 h. The format is ADME, organism-based.
Series [37] has as its system Pancreas. The series can be described thus: Biodistribution in ddY mouse pancreas assessed per gram of tissue at 0.2 to 0.4 uCi, iv after 10 mins. The format is ADME, organism-based. The following applies: in vivo.
Series [38] relates to Kidney. Put plainly: Biodistribution in ddY mouse kidney assessed per gram of tissue at 0.2 to 0.4 uCi, iv after 30 mins. The format is ADME, organism-based. The following applies: in vivo, 0.5 h.
Series [39] deals with Kidney. The series can be described thus: Biodistribution in ddY mouse kidney assessed per gram of tissue at 0.2 to 0.4 uCi, iv after 60 mins. The format is ADME, organism-based. The following applies: in vivo, 1 h.
Series [40] has as its system Kidney. Put plainly: Biodistribution in ddY mouse kidney assessed per gram of tissue at 0.2 to 0.4 uCi, iv after 10 mins. The format is ADME, organism-based. The following applies: in vivo.
Series [41] deals with Liver. The series can be described thus: Biodistribution in ddY mouse liver assessed per gram of tissue at 0.2 to 0.4 uCi, iv after 2 mins. The format is ADME, organism-based. The following applies: in vivo.
Series [42] concerns Heart. Put plainly: Biodistribution in ddY mouse heart assessed per gram of tissue at 0.2 to 0.4 uCi, iv after 60 mins. The format is ADME, organism-based. As to conditions: in vivo, 1 h.
The species named for series [43] is Mus musculus. Put plainly: Binding affinity to amyloid beta (1 to 42) in Tg2576 mouse brain sections by neuropathological staining method. The format is tissue-based.
For series [44], the species on record is Mus musculus. Put plainly: Binding affinity to amyloid beta (1 to 42) in wild type mouse brain sections by neuropathological staining method. The format is tissue-based.
In series [45] the target is Amyloid-beta precursor protein (Homo sapiens) (UniProt P05067). The series can be described thus: Binding affinity to beta-amyloid plaque in normal human brain sections at 1.6 uCi after 1 hr by autoradiography. The following applies: tested as the 125I-labelled form.
Chain of Amyloid-beta precursor protein (Homo sapiens) (P05067 whole entry): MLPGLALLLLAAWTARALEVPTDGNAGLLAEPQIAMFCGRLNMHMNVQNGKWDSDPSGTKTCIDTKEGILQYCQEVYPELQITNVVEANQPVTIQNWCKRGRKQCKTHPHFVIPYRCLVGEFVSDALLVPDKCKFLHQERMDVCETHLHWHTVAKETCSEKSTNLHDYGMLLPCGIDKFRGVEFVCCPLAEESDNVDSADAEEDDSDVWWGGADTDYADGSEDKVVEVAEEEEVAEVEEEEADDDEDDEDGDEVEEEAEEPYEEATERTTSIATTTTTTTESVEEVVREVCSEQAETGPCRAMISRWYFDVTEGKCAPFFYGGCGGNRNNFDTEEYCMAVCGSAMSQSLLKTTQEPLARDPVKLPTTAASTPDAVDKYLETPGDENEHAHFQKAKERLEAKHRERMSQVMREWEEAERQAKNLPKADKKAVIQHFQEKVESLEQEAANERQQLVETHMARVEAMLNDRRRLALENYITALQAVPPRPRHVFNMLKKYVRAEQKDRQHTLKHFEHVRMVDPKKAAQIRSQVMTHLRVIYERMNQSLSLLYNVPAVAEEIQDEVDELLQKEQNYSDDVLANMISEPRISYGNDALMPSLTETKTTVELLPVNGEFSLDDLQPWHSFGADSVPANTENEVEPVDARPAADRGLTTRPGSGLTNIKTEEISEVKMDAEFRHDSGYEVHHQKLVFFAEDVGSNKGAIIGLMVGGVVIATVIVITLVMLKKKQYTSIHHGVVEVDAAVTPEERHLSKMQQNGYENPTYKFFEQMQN
Series [46] shares this target. The series can be described thus: Binding affinity to beta-amyloid plaque in brain of patient with Alzheimers disease at 1.6 uCi after 1 hr by autoradiography. The format is tissue-based. The following applies: tested as the 125I-labelled form.
Series [47] is described as follows: Displacement of [125I]IMPY from amyloid beta (1 to 42) after 3 hrs by gamma counting.

Active and inactive are the calls of the source. The calls are words filed in the database; no cut-off is given here.

For `O=C1/C(=C/c2ccc(OCC[18F])cc2)Oc2ccc(I)cc21`, the Drug uptake in series [1] came out at 3.45 %ID; in [2] it was 2.84 %ID; in [3], 2.61 %ID; in [4] it was 3.42 %ID; in [5] it was 2.68 %ID; in series [6], 2.37 %ID. The Drug uptake in series [7] was 3.66 %ID; in series [8], 5.72 %ID; in [9] it was 2.03 %ID; in [11], 1.75 %ID; in [12] it was 2.13 %ID; in [13], 1.77 %ID. This molecule gave a CL in [10] of 1.75 %ID.

`O=C1/C(=C/c2ccc(OCCF)cc2)Oc2ccc([125I])cc21`: the Drug uptake in series [14] is listed as 0.89 %ID; in series [15], 3.74 %ID; in [16], 3.61 %ID; in series [2] it was 3.13 %ID; in [17], 1.46 %ID; in [3] it was 1.29 %ID. In addition, the Drug uptake in series [18] turned out to be 15.74 %ID; in [19] it was 0.8 %ID; in series [5] it was 1.94 %ID; in series [20], 2.02 %ID; in [21], 1.35 %ID; in [22], 12.44 %ID. The Drug uptake in series [23] is 1.54 %ID; in [24], 6.96 %ID; in series [25] it was 2.37 %ID; in series [6], 0.84 %ID; in series [26] it was 0.79 %ID; in [7], 2.34 %ID. The Drug uptake amounted to 6.7 %ID in series [8]; 10.96 %ID in series [28]; 3.44 %ID in [29]; 4.9 %ID in series [30]; 16.5 %ID in series [31]; 1.95 %ID in series [32]. In addition, the Drug uptake in series [33] amounted to 0.61 %ID; in series [34], 6.53 %ID; in [11], 0.19 %ID; in series [35], 4.33 %ID; in series [36], 12.35 %ID; in series [37], 1.33 %ID. Also, the Drug uptake in series [38] was found to be 5.49 %ID; in [39], 5.22 %ID; in series [40], 7.53 %ID; in series [13], 0.19 %ID; in series [41], 17.06 %ID; in [42], 1.19 %ID. Also, the logD in series [27] was 2.45. In series [10], this molecule showed a CL of 0.19 %ID.

`O=C1/C(=C/c2ccc(OCCF)cc2)Oc2ccc(I)cc21`: the result in series [43] and in series [46] was Active. The outcome in series [44] and in series [45] was inactive. The Activity entry in [47] is “Dose-dependent effect”. In addition, the Ki in series [47] is 6.81 nM.
